Tested on: HepG2 cells
Experiment: cDNA microarray, drug toxicity and metabolism genes
Type: cell-based, human
Settings: HepG2 cells before and after SIN treatment
Procedure: The advancement of nucleic acid array technology has made it possible to analyze the expression of multiple genes in a single experiment. The cDNA Microarray is used to characterize gene expression associated with a specific biological pathway in a more comprehensive and cost effective manner. The genes on the cDNA microarray membrane are targeted to the drug toxicity and metabolism pathways. It is a useful approach to study the biological activities of SIN.
HepG2 cells were treated and harvested as described in the foregoing examples. The cell pellet was dissolved in 500 μl TRIzol® reagent (Invitrogen, CA, USA). The whole solution was allowed to stand at room temperature for 5 minutes. The solution was centrifuged at 14,000 rpm for 10 minutes at 4° C. The supernatant was collected in a new tube with 100 μl chloroform. After shaking and incubation for 10 minutes at room temperature, the solution was centrifuged at 14,000 rpm for 15 minutes at 4° C. Recentrifugation was necessary if the layer was not clear. The upper aqueous layer was carefully transferred into a new tube with 250 μl isopropanol. After shaking, the tube was allowed to stand at room temperature for 10 minutes for RNA precipitation. […]
cRNA purification was performed with SuperArray Array Grade cRNA Cleanup Kit. […] The quality and quantity of the cRNA product were determined as described previously. […]

## C=CC/C(=N/OS(=O)(=O)[O-])S[C@@H]1OC(CO)[C@@H](O)C(O)C1O.[K+] (stereo partly shown) [SIN, sinigrin]
  gene expression in drug toxicity and metabolism pathways: many genes in drug toxicity and metabolism pathways were differentially expressed
